Measured values reported in patent US4968672A, “Adenosine receptor prodrugs” (priority 1987, dated 1990).
Counter-ions that a name gives are not always drawn. Like-named read-outs stand apart in the source and are kept apart here.

How the values were obtained:
A1 adenosine receptors = biological target: T1, A1 adenosine receptors (Rattus norvegicus, UniProt P25099); test: membrane binding assay at A1 adenosine receptors (Tables 1 and 2)
T1 construct: rat cerebral cortex membranes; from tissue; host or cells: rat cerebral cortex membranes
T1 sequence (P25099 1-326): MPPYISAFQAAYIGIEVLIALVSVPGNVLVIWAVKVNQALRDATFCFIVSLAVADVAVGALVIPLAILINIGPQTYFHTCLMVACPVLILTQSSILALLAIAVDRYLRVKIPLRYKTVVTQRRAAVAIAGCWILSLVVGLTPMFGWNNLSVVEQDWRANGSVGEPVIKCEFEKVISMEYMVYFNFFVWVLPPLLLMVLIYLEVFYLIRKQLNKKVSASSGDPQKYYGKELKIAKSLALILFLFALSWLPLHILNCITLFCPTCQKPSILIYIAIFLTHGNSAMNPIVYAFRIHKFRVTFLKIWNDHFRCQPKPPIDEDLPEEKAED
Source text: Table 2 lists prodrugs (including Routes A and B of FIG. 2) and chemical intermediates, based on xanthine and adenosine functionalized congener and the method of synthesis. The potency of each compound at A1 adenosine receptors is indicated by the Ki (inverse relationship to potency) in a membrane binding assay.

A2 receptor = biological target: T2, A2 receptor (Homo sapiens, UniProt P29274); test: antagonism of NECA-induced stimulation of adenylate cyclase activity in human platelet membranes; type: biochemical; conditions: antagonism of NECA-stimulated adenylate cyclase, human platelet membranes; means with 95% confidence limits from 3 experiments; read-out: A2 receptor KB
T2 construct: human platetlet membranes; from tissue; host or cells: human platelet membranes
Experimental: Measurements of the potencies of the xanthines as antagonists of NECA-induced stimulation of adenylate cyclase activity in human platetlet membranes and as inhibitors of [^3 H]PIA binding to rat cerebral cortex membranes were carried out as reported previously.

[1] = Table 1, prodrug before cleavage, read-out: Ki(nM) at A1 Before Cleavage
[2] = Table 1, liberated product, read-out: Ki(nM) at A1 After Cleavage

T2 sequence (P29274 whole entry): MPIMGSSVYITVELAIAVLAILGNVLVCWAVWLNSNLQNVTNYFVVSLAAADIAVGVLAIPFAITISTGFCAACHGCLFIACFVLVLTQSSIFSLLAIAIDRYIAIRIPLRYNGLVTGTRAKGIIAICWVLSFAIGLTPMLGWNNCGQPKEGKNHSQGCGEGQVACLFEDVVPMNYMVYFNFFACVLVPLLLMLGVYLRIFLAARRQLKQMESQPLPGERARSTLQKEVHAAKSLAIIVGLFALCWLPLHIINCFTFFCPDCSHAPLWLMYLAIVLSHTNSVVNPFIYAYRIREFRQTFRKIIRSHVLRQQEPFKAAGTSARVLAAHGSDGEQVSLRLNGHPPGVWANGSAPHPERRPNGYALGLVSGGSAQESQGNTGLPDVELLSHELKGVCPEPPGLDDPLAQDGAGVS

| SMILES | Ki (A1 adenosine receptors; Table 2, read-out: Ki (A1(nM))) [nM] | also measured |
| --- | --- | --- |
| CCCn1c(=O)c2[nH]c(-c3ccc(OCC(=O)NCCNC(=O)CNC(=O)CN)cc3)nc2n(CCC)c1=O [Compound 20] | 3.6 |  |
| CCCCC/C=C\C/C=C\CCCCCCCC(=O)NCCNC(=O)COc1ccc(-c2nc3c([nH]2)c(=O)n(CCC)c(=O)n3CCC)cc1 [N-linoleyl-XAC] | 35 |  |
| CCCCCCCCCCCCCC(=O)NCCNC(=O)COc1ccc(-c2nc3c([nH]2)c(=O)n(CCC)c(=O)n3CCC)cc1 [drawing 10] |  | Ki (A1 adenosine receptors; [1]): 49 nM |
| CCCn1c(=O)c2[nH]c(-c3ccc(OCC(=O)NCCNC(=O)[C@@H](NC(=O)[C@H](Cc4ccc(OC(C)=O)cc4)NC(C)=O)C(C)C)cc3)nc2n(CCC)c1=O [AcTyr(OAc)ValXAC] | 5 | Ki (A1 adenosine receptors; [1]): 5 nM |
| CCCn1c(=O)c2[nH]c(-c3ccc(OCC(=O)NCCNC(=O)CC[C@H](N)C(=O)OCc4ccccc4)cc3)nc2n(CCC)c1=O [TFA.HGlu(XAC)OBzl, Glutamic acid (gamma-XAC) alpha benzyl ester trifluoroacetate] |  | Ki (A1 adenosine receptors): 1.8 nM |
| CCCCCCCC/C=C/CCCCCCCC(=O)OCCNC(=O)COc1ccc(-c2nc3c([nH]2)c(=O)n(CCC)c(=O)n3CCC)cc1 [O-elaidoyl-XHC, Elaidic ester of hydroxy congener] | 85 |  |
| CCCn1c(=O)c2[nH]c(-c3ccc(OCC(=O)NCCNC(=O)[C@@H](NC(=O)[C@@H](N)Cc4ccc(O)cc4)C(C)C)cc3)nc2n(CCC)c1=O [Compound 26] |  | Ki (A1 adenosine receptors): 3 nM |
| CCCn1c(=O)c2[nH]c(-c3ccc(OCC(=O)NCCNC(=O)CNC(=O)[C@@H](N)Cc4ccc(O)cc4)cc3)nc2n(CCC)c1=O [Compound 22] |  | Ki (A1 adenosine receptors): 5.3 nM |
| CCCCCCCCCCCCCC(=O)OCC(COC(=O)CCCCCCCCCCCCC)OC(=O)COc1ccc(-c2nc3c([nH]2)c(=O)n(CCC)c(=O)n3CCC)cc1 [1,3-dimyristin-(2-XCC), 1,3-Dimyristin-2-XCC] | 104 ± 7.7 | Ki (A1 adenosine receptors; [1]): 104 nM |
| CCCn1c(=O)c2[nH]c(-c3ccc(OCC(=O)NCCOC(C)=O)cc3)nc2n(CCC)c1=O [Compound 40] | 12 |  |
| CCCn1c(=O)c2[nH]c(-c3ccc(OCC(=O)NCCNC(=O)CNC(=O)CNC(=O)CNC(=O)OCc4ccccc4)cc3)nc2n(CCC)c1=O [CbzGlyGlyGlyXAC] | 10 |  |
| CCCn1c(=O)c2[nH]c(-c3ccc(OCC(=O)NCCNC(=O)CN)cc3)nc2n(CCC)c1=O [HGlyXAC] |  | Ki (A1 adenosine receptors; [2]): 2.1 nM |
| CCCCCC=CCC=CCCCCCCCC(=O)NC(Cc1ccc(OC(=O)CCCCCCCC=CCC=CCCCCC)cc1)C(=O)NCC(=O)NCCNC(=O)COc1ccc(-c2nc3c([nH]2)c(=O)n(CCC)c(=O)n3CCC)cc1 (centres unmarked) [Linoleyl-Tyr(O-linoleyl)-GlyXAC] | 20 | Ki (A1 adenosine receptors; [1]): 20 nM |
| CCCn1c(=O)c2c(nc(-c3ccc(OCC(=O)NCCN)cc3)n2Cc2ccccc2)n(CCC)c1=O [(N7-benzyl)XAC] | 250 |  |
| Cn1c(=O)c2[nH]c(-c3ccccc3)nc2n(C)c1=O [Compound 51a] |  | Kb (A2 receptor): 1900 nM |
| CCCn1c(=O)c2[nH]c(-c3ccc(OCC(=O)NCCNC(=O)CNC(=O)[C@H](Cc4ccc(O)cc4)NC(=O)OCc4ccccc4)cc3)nc2n(CCC)c1=O [CbzTyrGlyXAC] | 4 | Ki (A1 adenosine receptors; [1]): 4 nM |
| CCCn1c(=O)c2[nH]c(-c3ccc(OCC(=O)NCCNC(=O)CNC(=O)CNC(=O)CN)cc3)nc2n(CCC)c1=O [HBr.HGlyGlyGlyXAC] | 10 |  |
| CCCCC/C=C\C/C=C\CCCCCCCC(=O)NCCNC(=O)Cc1ccc(NC(=O)Cc2ccc(Nc3ncnc4c3ncn4[C@@H]3O[C@H](CO)[C@@H](O)[C@H]3O)cc2)cc1 [N-linoleyl-ADAC] | 0.5 |  |
| CCCn1c(=O)c2[nH]c(-c3ccc(OCC(=O)NCCNC(=O)CN(CC(=O)O)C(=O)OCC4c5ccccc5-c5ccccc54)cc3)nc2n(CCC)c1=O [HO2 CCH2N(FMOC)CH2 COXAC, 8-[N -Carboxymethyl-N -(9-fluorenylmethyloxycarbonyl) -[[[[[[[[[amino]methyl]carbonyl]amino]ethyl]amino]carbonyl]methyl]-oxy]phenyl]-1,3-dipropylxanthine] | 170 |  |
| CCCn1c(=O)c2[nH]c(-c3ccc(OCC(=O)NCCNC(=O)[C@@H](NC(=O)[C@H](Cc4ccc(O)cc4)NC(=O)OCc4ccccc4)C(C)C)cc3)nc2n(CCC)c1=O [CbzTyrValXAC] | 3.7 |  |
| CCCn1c(=O)c2[nH]c(-c3ccc(OCC(=O)NCCNC(=O)OCc4ccccc4)cc3)nc2n(CCC)c1=O [NCbzXAC] | 8 |  |

| SMILES | Ki (A1 adenosine receptors; Table 2, read-out: Ki (A1(nM))) [nM] | also measured |
| --- | --- | --- |
| CCCCCCCCCCCCCCCCCC(=O)NCCNC(=O)Cc1ccc(NC(=O)Cc2ccc(Nc3ncnc4c3ncn4[C@@H]3O[C@H](CO)[C@@H](O)[C@H]3O)cc2)cc1 [N-stearoyl-ADAC, Stearoyl-ADAC] | 1 |  |
| CCCn1c(=O)c2c(nc(-c3ccc(OCC(=O)NCCNC(=O)OCc4ccccc4)cc3)n2Cc2ccccc2)n(CCC)c1=O [NCbz(N7-benzyl)XAC] | 95 |  |
| CCCCCCCC/C=C/CCCCCCCC(=O)NCCNC(=O)Cc1ccc(NC(=O)Cc2ccc(Nc3ncnc4c3ncn4[C@@H]3O[C@H](CO)[C@@H](O)[C@H]3O)cc2)cc1 [Compound 37] | < 0.3 | potency in the blocked form (A1 adenosine receptors): highly potent in the blocked form |
| CCCn1c(=O)c2[nH]c(-c3ccc(OCC(=O)NCCO)cc3)nc2n(CCC)c1=O [Compound 39] | 13 | Ki (A1 adenosine receptors; [2]): 12 nM |
| CCCn1c(=O)c2[nH]c(-c3ccc(OCC(=O)NCCNC(=O)CNC(=O)CNC(=O)OCc4ccccc4)cc3)nc2n(CCC)c1=O [CbzGlyGlyXAC] | 3.1 |  |
| CCCn1c(=O)c2[nH]c(-c3ccc(OCC(=O)NCCNC(=O)[C@H](CC(C)C)NC(C)=O)cc3)nc2n(CCC)c1=O [AcLeuXAC] | 20 |  |
| CCCCCCCC/C=C\CCCCCCCC(=O)OCC(COP(=O)(O)OCCNC(=O)COc1ccc(-c2nc3c([nH]2)c(=O)n(CCC)c(=O)n3CCC)cc1)OC(=O)CCCCCCC/C=C\CCCCCCCC (centres unmarked) [Compound 32, XCC-phosphatidylethanolamine] | 24 ± 1 | potency at adenosine A1 receptors relative to compound 33 / to hydrolysis product (A1 adenosine receptors): of comparable potency |
| CCCn1c(=O)c2[nH]c(-c3ccc(OCC(=O)NCCNC(=O)[C@H](CC(=O)O)NC(=O)OC(C)(C)C)cc3)nc2n(CCC)c1=O [BocAspXAC] | 30 |  |
| CCCn1c(=O)c2[nH]c(-c3ccc(OCC(=O)NCCNC(=O)c4ccc[n+](C)c4)cc3)nc2n(CCC)c1=O [Compound 43] | 40 | Ki (A1 adenosine receptors; [2]): 10 nM; Ki (A1 adenosine receptors; [1]): 10 nM |
| CCCn1c(=O)c2[nH]c(-c3ccc(OCC(=O)NCCNC(=O)CC[C@H](N)C(=O)O)cc3)nc2n(CCC)c1=O [HGlu(XAC)OH] | 17 |  |
| CCCn1c(=O)c2[nH]c(-c3ccc(OCC(=O)NCCNC(=O)[C@@H](N)C(C)C)cc3)nc2n(CCC)c1=O [HValXAC] |  | Ki (A1 adenosine receptors; [2]): 3 nM |
| CCCn1c(=O)c2[nH]c(-c3ccc(OCC(=O)NCCNC(=O)[C@H](CC(=O)OCc4ccccc4)NC(=O)OC(C)(C)C)cc3)nc2n(CCC)c1=O [BocAsp(OBzl)XAC] | 150 | Ki (A1 adenosine receptors; [1]): 150 nM |
| CCCn1c(=O)c2[nH]c(-c3ccc(OCC(=O)NCCNC(=O)[C@@H](Cc4ccc([N+](=O)[O-])cc4)NC(=O)OC(C)(C)C)cc3)nc2n(CCC)c1=O [BocD(p-NO2)PheXAC] | 89 |  |
| CCn1c(=O)c2[nH]c(-c3ccccc3)nc2n(CC)c1=O [Compound 51b] |  | Kb (A2 receptor): 210 nM |
| CCCn1c(=O)c2[nH]c(-c3ccc(OCC(=O)NCCNC(=O)[C@H](N)Cc4ccc(N)cc4)cc3)nc2n(CCC)c1=O [TFA.HD(p-NH2)PheXAC] | 2.3 |  |
| CCCn1c(=O)c2[nH]c(-c3ccc(OCC(=O)NCCNC(=O)[C@@H](Cc4ccc(N)cc4)NC(=O)OC(C)(C)C)cc3)nc2n(CCC)c1=O [Compound 10] | 32 |  |
| CCCn1c(=O)c2[nH]c(-c3ccc(OCC(=O)NCCNC(=O)[C@H](N)Cc4ccc(N)c(I)c4)cc3)nc2n(CCC)c1=O [TFA.HD(p-NH2 -m-I)PheXAC] | 4 |  |
| CCCn1c(=O)c2[nH]c(-c3ccc(OCC(=O)NCCNC(=O)CNC(=O)[C@H](Cc4ccc(OC(C)=O)cc4)NC(C)=O)cc3)nc2n(CCC)c1=O [AcTyr(OAc)GlyXAC] | 3.9 |  |
| CCCn1c(=O)c2[nH]c(-c3ccc(OCC(=O)NCCNC(=O)[C@H](N)Cc4ccc([N+](=O)[O-])cc4)cc3)nc2n(CCC)c1=O [TFA.HD(p-NO2)PheXAC] | 4.3 |  |
| CCCn1c(=O)c2[nH]c(-c3ccc(OCC(=O)NCCNC(=O)CC[C@H](NC(=O)OC(C)(C)C)C(=O)OCc4ccccc4)cc3)nc2n(CCC)c1=O [BocGlu(XAC)OBzl, Boc-glutamyl(gamma-XAC)-alpha-benzyl ester] | 18 |  |
| CCCCCCCCCCCCCCCCCC(=O)OCCNC(=O)COc1ccc(-c2nc3c([nH]2)c(=O)n(CCC)c(=O)n3CCC)cc1 [O-stearoyl-XHC] | 208 | Ki (A1 adenosine receptors; [1]): 208 nM |
